Measured values published in patent US20080021049A1, “Treatment Of Diet-Related Conditions Using Phospholipase-A2 Inhibitors Comprising Indoles And Related Compounds” (priority 2004, published 2008).
Where two headings read alike, the source gives them in different places. Values belong to the compound of their own block, whether it stands above or below them.

Columns and labels:
[1] = biological target: human pancreatic secreted PLA2 (hps PLA2) (Homo sapiens, UniProt P04054); conditions: reported literature data; cited from earlier work
human pancreatic secreted PLA2 (hps PLA2), sequence (P04054 23-148): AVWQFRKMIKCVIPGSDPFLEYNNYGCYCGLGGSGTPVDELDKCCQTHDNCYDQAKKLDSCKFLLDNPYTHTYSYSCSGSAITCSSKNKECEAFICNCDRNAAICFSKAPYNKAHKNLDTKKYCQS

[2] = biological target: porcine pancreatic secreted PLA2 (pps PLA2) (Sus scrofa, UniProt P00592); conditions: reported literature data; cited from earlier work
porcine pancreatic secreted PLA2 (pps PLA2), sequence (P00592 23-146): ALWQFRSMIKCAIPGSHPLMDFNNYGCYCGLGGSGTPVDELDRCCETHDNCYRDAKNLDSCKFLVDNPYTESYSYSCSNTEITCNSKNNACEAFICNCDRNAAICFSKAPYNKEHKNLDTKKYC

[3] = Pharmokinetic study, bioavailability (Example 6C); format: in vivo, mice
Protocol: This example characterized ILY-4001 [2-(3-(2-amino-2-oxoacetyl)-1-(biphenyl-2-ylmethyl)-2-methyl-1H-indol-4-yloxy)acetic acid], alternatively referred to herein as methyl indoxam, with respect to activity, as determined by IC50 assay (Example 6A), with respect to cell absorption, as determined by in-vitro Caco-2 assay (Example 6B) and with respect to bioavailability, as determined using in-vivo mice studies (Example 6C).
Bioavailability was calculated as a ratio of AUC-oral/AUC-intravenous (IV). To determine this ratio, a first set of subject animals were given a measured intravenous (IV) dose of ILY-4001, followed by a determination of ILY-4001 levels in the blood at various time points after administration (e.g., 5 minutes through 24 hours). Another second set of animals was similarly dosed using oral administration, with blood levels of ILY-4001 determined at various time points after administration (e.g., 30 minutes through 24 hours). The level of ILY-4001 in systemic circulation were determined by generally accepted methods (for example as described in Evans, G., A Handbook of Bioanalysis and Drug Metabolism. Boca Raton, CRC Press (2004)). Specifically, […]/mass spectrometry/mass spectrometry (LC/MS/MS) analytical methods were used to quantitate plasma concentrations of ILY-4001 after oral and intravenous administration. […]

[4] = format: in vivo, mice; conditions: for body weight gain compared to wild-type control group: week 4 and week 10
[5] = format: in vivo, mice; conditions: low dose 25 mg/kg/day in diet
[6] = format: in vivo, mice; conditions: 10 weeks
[7] = Stability at low pH; format: physicochemical
[8] = biological target: human PLA2 IB enzyme (Homo sapiens, UniProt P04054); conditions: pyrene substrate release from vesicles (Singer, Ghomashchi et al. 2002); read-out: IC50 versus the human PLA2 IB enzyme; cited from earlier work
human PLA2 IB enzyme, sequence (P04054 23-148): as the sequence (P04054 23-148) above

[9] = biological target: mouse PLA2 IB enzyme (Mus musculus, UniProt Q9Z0Y2); conditions: pyrene substrate release from vesicles (Singer, Ghomashchi et al. 2002); read-out: IC50 versus the mouse PLA2 IB enzyme; cited from earlier work
mouse PLA2 IB enzyme, sequence (Q9Z0Y2 23-146): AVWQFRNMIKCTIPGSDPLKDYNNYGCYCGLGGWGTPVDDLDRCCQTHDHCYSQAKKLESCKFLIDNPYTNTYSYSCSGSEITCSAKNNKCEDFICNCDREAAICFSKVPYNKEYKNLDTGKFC

[10] = system: Caco-2 cells; assay: Caco-2 permeability study (Example 6B)
[11] = system: Caco-2 cells

Compound: Cc1c(CC(N)=O)c2c(OCC(=O)O)cccc2n1Cc1cccc(Cl)c1
IC50 [1]: 1.2 µM
IC50 [2]: 0.02 µM

Compound: Cc1c(CC(N)=O)c2c(OCC(=O)O)cccc2n1Cc1ccccc1-c1ccccc1
IC50 [1]: 4.09 µM
IC50 [2]: 0.014 µM

Compound: Cc1c(CC(=O)NN)c2cc(OCCCC(=O)O)ccc2n1Cc1ccccc1
IC50 (μM) hps PLA2 [1]: no activity
IC50 (μM) pps PLA2 [2]: no activity

Compound: Cc1c(C(=O)C(N)=O)c2c(/C=C/C(=O)O)cccc2n1Cc1ccccc1
IC50 [1]: > 100 µM

Compound: Cc1c(C(=O)C(N)=O)c2c(CCC(=O)O)cccc2n1Cc1ccccc1
IC50 [1]: > 100 µM

Compound: Cc1c(C(=O)C(N)=O)c2c(OCC(=O)O)cccc2n1Cc1ccccc1-c1ccccc1 [ILY-4001, 2-(3-(2-amino-2-oxoacetyl)-1-(biphenyl-2-ylmethyl)-2-methyl-1H-indol-4-yloxy)acetic acid]
bioavailability ([3]; mouse, plasma, oral, 30 mg/kg, read-out: % F (bioavailability)): 28%
level of non-absorption from the GI tract into systemic circulation ([3]; oral 30 mg/kg): ~72%
body weight gain modulation relative to PLA2 (−/−) mice ([4]; 25 mg/kg/d (low dose) in diet, ten weeks): comparable to that achieved in the PLA2 (−/−) mice
body weight gain modulation relative to PLA2 (−/−) mice ([4]; 25 mg/kg/d in diet, four weeks): approaching that achieved in the PLA2 (−/−) mice
body weight gain compared to wild-type control group ([4]; 25 mg/kg/d in diet): significantly reduced body weight gains
body weight gain modulation relative to PLA2 (−/−) mice ([4]; 90 mg/kg/d in diet, four weeks): approaching that achieved in the PLA2 (−/−) mice
body weight gain compared to wild-type control group ([4]; 90 mg/kg/d in diet): significantly reduced body weight gains
fasting glucose levels ([5]; week four): moderately beneficial effect
fasting glucose levels ([5]; week ten): a beneficial effect was not observed
plasma level of cholesterol ([6]; high dose 90 mg/kg/day in diet): substantially reduced
plasma level of triglycerides ([6]; high dose 90 mg/kg/day in diet): substantially reduced
plasma level of cholesterol ([6]; low dose 25 mg/kg/day in diet): substantially reduced
plasma level of triglycerides ([6]; low dose 25 mg/kg/day in diet): substantially reduced
stability at low pH [7]: stable at low pH
IC50 [8]: ~0.2 µM
IC50 [9]: ~0.15 µM
apparent permeability (Papp) ([10]; 50 ug/ml in apical well, sampled basolateral, Caco-2 monolayer): around 1.66×10^−7 cm/s
absorption from the GI lumen ([10]; based on Caco-2 assays and pharmokinetic studies): relatively low absorption

apparent permeability (Papp) [11]: around 2.82×10^−7+/−0.37×10^−7 cm/s
Compound: Lucifer Yellow
